Source: patent publication US10668059B2, “Compositions and methods for the prevention and treatment of mast cell-induced vascular leakage” (Duke University, priority 2012, dated 2020)

Experiments:
[1] = tested on: DENV; assay: Hematocrit analysis in DENV-infected WT mice; format: in vivo; details: i.p. 1×10^6 pfu DENV, 1 day after infection, versus uninfected baseline
Protocol: (§1) Serum was obtained from uninfected mice, DENV-infected and untreated mice, and mice that received MC-stabilizing or MC-product targeting treatments 24 hr after infection. Error bars represent the SEM of values obtained from individual animals n≥3.
To support the observation of increased dye leakage, hematocrit analysis was also performed using blood samples from mice. This test is one that is used in some cases to diagnose DENV pathology clinically by measuring the packed red blood cell volume from the blood and, therefore, it is a measure of plasma loss (see, e.g., Special Programme for Research and Training in Tropical Diseases, WHO Dengue: guidelines for diagnosis, treatment, prevention, and control. (2009) New ed. Geneva:TDR:World Health Organization). […] These findings cumulatively point to a pivotal role for MCs in promoting DENV-induced increased in vascular permeability.
Due to the contributions of MCs to many pathological inflammatory disorders, there are a number of available drugs that target MCs or products that they produce after activation. […] This hypothesis was tested by blocking DENV induced vascular leakage using a panel of such drugs. […] Drugs were administered once, 30 minutes after i.p. instillation of 1×106 DENV and vascular leakage assessed 1 day after infection.

[2] = tested on: DENV; assay: Evans Blue perfusion model of DENV-induced vascular leakage in WT mice; format: in vivo; details: i.p. 1×10^6 pfu DENV, 1 day after infection, versus uninfected baseline
Protocol: Uninfected mice, or mice infected with 1×10^6 pfu of DENV were injected with 100 μL of 5% Evans Blue dye 30 minutes prior to euthanasia. […] This contrast is particularly striking in the liver, a Dengue-target organ.
as §1
As expected, Sash mice, which are MC-deficient model (see, e.g., Grimbaldestron, M. A. et al. (2005) Am. J. Pathol. 167:835-848), have undetectable serum levels of MCPT1 as baseline, as do uninfected congenic wild-type (WT) controls (FIG. 2A). To examine vascular leakage, mice infected with DENV were injected by tail vein with the tracking dye, Evans Blue, 30 minutes prior to euthanasia at a 24 hr time point.
Using this Evans Blue perfusion model, the extent of vascular leakage induced in 24 hr after i.p. instillation of 1×10^6 plaque-forming units (pfu) of DENV in WT and Sash mice was determined. […]
Due to the contributions of MCs to many pathological inflammatory disorders, there are a number of available drugs that target MCs or products that they produce after activation. […] Drugs were administered once, 30 minutes after i.p. instillation of 1×106 DENV and vascular leakage assessed 1 day after infection.

CN1CCC(=C2c3ccccc3CC(=O)c3sccc32)CC1 [ketotifen]
hematocrit values compared to baseline levels [1]: not statistically different from baseline levels
levels of tissue dye detection compared to baseline levels [2]: not statistically different from baseline levels
